Test results from patent publication US9416114B2, “1,2,4-triazine derivatives for the treatment of viral infections” (CENTRE NATIONAL DE LA RECHERCHE SCIENTIFIQUE (CNRS), priority 2012, dated 2016).
Where two headings read alike, the source gives them in different places.

Legend:
Format in all cases: cell-based
[1] = tested on: interferon-stimulated responsive elements (ISRE); assay: Activation of ISRE promoter elements by conditioned media from PBMC (HEK-ISREluc); settings: Homo sapiens, read-out: HEK-ISRE luc (LEC)
Procedure: The potential of compounds to induce IFN-I was also evaluated by measuring the activation of interferon-stimulated responsive elements (ISRE) by conditioned media from PBMC. The ISRE element of sequence […] is highly responsive to the STAT1-STAT2-IRF9 transcription factor, activated upon binding of IFN-I to their receptor IFNAR (Clontech, PT3372-5W). The plasmid pISRE-Luc from Clontech (ref. 631913) contains 5 copies of this ISRE element, followed by the firefly luciferase ORF. A HEK293 cell line stably transfected with pISRE-Luc (HEK-ISREluc) was established to profile of the conditioned PBMC cell culture media.
Briefly, PBMCs were prepared from buffy coats of at least two donors using a standard Ficoll centrifugation protocol. Isolated PBMCs were resuspended in RPMI medium supplemented with 10% human AB serum and 2×10^5 cells/well were dispensed into 384-well plates containing compounds (70 μL total volume). After overnight incubation, 10 μL of supernatant was transferred to 384-well plates containing 5×10^3 HEK-ISREluc cells/well in 30 μL (plated the day before). Following 24 hours of incubation, activation of the ISRE elements was measured by assaying luciferase activity using 40 μL/well Steady Lite Plus substrate (Perkin Elmer) and measured with ViewLux ultraHTS microplate imager (Perkin Elmer). The stimulating activity of each compound on the HEK-ISREluc cells was reported as LEC value, defined as the compound concentration applied to the PBMCs resulting in a luciferase activity at least two fold above the standard deviation of the assay. The LEC in turn indicates the degree of ISRE activation on transfer of a defined amount of PBMC culture medium. Recombinant interferon α-2a (Roferon-A) was used as a standard control compound.

[2] = target: T1, human TLR7 (Homo sapiens, UniProt Q9NYK1); assay: TLR7 cellular reporter assay (HEK293, NFκB-luc); settings: HEK293 transiently transfected with TLR7 and NFκB-luc; 6 hours incubation; lowest effective concentration
T1 construct: expressed in transfected cells; host or cells: HEK293
T1 sequence (Q9NYK1 27-1049): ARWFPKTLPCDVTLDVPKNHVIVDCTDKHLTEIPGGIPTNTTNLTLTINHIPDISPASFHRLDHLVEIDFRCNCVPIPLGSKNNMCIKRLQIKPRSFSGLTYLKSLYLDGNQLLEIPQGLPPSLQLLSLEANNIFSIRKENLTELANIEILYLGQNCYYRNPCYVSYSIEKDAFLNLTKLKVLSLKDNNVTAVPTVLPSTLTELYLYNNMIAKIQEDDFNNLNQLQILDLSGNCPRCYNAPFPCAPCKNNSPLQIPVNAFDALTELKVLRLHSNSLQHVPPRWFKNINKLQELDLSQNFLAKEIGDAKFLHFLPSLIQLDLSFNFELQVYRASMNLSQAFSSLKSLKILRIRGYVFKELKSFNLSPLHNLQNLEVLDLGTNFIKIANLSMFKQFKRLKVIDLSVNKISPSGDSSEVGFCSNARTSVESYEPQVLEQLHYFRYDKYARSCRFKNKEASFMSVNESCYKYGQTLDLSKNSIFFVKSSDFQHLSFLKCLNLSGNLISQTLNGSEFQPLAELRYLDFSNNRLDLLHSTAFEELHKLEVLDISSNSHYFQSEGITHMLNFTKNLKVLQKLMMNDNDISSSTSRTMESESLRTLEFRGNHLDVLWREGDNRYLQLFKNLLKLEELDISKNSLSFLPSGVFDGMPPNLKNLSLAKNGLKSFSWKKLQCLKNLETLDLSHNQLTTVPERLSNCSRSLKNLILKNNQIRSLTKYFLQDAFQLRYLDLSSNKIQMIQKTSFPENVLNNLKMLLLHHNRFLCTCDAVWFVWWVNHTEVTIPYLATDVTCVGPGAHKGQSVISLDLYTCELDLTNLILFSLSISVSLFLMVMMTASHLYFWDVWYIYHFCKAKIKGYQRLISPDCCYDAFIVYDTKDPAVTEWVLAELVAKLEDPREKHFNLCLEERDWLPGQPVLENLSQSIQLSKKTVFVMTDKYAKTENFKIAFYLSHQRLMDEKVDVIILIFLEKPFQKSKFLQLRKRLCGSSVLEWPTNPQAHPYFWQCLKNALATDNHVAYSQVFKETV
Procedure: (§1) The ability of compounds to activate human TLR7 and/or TLR8 was assessed in a cellular reporter assay using HEK293 cells transiently transfected with a TLR7 or TLR8 expression vector and NFκB-luc reporter construct.
(§2) Briefly, HEK293 cells were grown in culture medium (DMEM supplemented with 10% FCS and 2 mM Glutamine). For transfection of cells in 10 cm dishes, cells were detached with Trypsin-EDTA, transfected with a mix of CMV-TLR7 or TLR8 plasmid (750 ng), NFκB-luc plasmid (375 ng) and a transfection reagent and incubated overnight at 37° C. in a humidified 5% CO2 atmosphere. […] Thirty microliters of cells were then dispensed into each well in 384-well plates, where 10 μL of compound in 4% DMSO was already present. Following 6 hours incubation at 37° C., 5% CO2, the luciferase activity was determined by adding 15 μL of Steady Lite Plus substrate (Perkin Elmer) to each well and readout performed on a ViewLux ultraHTS microplate imager (Perkin Elmer). Dose response curves were generated from measurements performed in quadruplicates.

[3] = target: T2, human TLR8 (Homo sapiens, UniProt Q9NR97); assay: TLR8 cellular reporter assay (HEK293, NFκB-luc); settings: HEK293 transiently transfected with TLR8 and NFκB-luc; 6 hours incubation; lowest effective concentration
T2 construct: expressed in transfected cells; host or cells: HEK293
T2 sequence (Q9NR97 27-1041): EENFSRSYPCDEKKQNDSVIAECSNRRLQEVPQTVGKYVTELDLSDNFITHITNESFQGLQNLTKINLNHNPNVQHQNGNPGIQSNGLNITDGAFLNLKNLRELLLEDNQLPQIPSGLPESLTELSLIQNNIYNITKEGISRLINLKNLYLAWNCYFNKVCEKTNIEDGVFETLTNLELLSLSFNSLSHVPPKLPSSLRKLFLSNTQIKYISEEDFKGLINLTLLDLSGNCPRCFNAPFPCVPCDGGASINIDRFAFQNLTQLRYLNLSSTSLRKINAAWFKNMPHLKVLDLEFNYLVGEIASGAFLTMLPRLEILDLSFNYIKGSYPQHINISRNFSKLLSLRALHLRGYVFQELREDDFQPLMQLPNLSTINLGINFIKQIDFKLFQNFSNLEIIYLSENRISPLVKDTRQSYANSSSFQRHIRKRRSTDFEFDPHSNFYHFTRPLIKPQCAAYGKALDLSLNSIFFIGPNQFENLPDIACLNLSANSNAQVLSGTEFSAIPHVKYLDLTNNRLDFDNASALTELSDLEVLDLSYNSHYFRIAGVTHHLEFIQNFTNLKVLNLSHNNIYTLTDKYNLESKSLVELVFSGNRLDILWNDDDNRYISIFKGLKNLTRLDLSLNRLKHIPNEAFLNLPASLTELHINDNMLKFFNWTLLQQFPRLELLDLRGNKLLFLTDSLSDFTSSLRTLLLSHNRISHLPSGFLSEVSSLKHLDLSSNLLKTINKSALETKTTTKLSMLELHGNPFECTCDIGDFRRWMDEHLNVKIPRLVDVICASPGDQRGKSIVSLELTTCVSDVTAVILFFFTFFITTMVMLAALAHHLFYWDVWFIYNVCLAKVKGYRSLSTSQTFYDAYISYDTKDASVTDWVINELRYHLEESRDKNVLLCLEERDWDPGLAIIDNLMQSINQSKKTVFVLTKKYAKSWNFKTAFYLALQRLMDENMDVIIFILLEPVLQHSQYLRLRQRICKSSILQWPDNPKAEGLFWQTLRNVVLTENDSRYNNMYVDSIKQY
Procedure: as §1, §2

[4] = PBMC conditioned medium transferred to HEK-ISREluc cells, 24 hours, lowest effective concentration

SMILES	Human TLR 7 (LEC) [2] [µM]	Human TLR 8 (LEC) [3] [µM]	minimal effective concentration [1, 4] [µM]	minimal effective concentration ([1]; PBMC, 24 h) [µM]
CCC[C@@H](CCO)Nc1nc(N)nnc1OCc1nccc(OC)c1OC [Compound 8]	0.24	0.56	0.014	
CCCC[C@@H](CCO)Nc1nc(N)nnc1OC [Compound 12]	7.8		2.72	
CCCCNc1nc(N)nnc1OC(C)C [Compound 18]	8.27		0.53	
CCCCNc1nc(N)nnc1OCc1ccccc1F [Compound 20]	0.75			0.54
CCCCNc1nc(N)nnc1OCc1cccnc1 [Compound 21]	1.71			0.14
CCCCNc1nc(N)nnc1OCCOC [Compound 22]	4.75	1.0		0.41
CCCCNc1nc(N)nnc1OCCCN(C)C [Compound 24]	>25	0.1		0.17

Continued, in another order:

Human TLR 7 (LEC) [2] [µM]	Human TLR 8 (LEC) [3] [µM]	SMILES	minimal effective concentration [1, 4] [µM]	minimal effective concentration ([1]; PBMC, 24 h) [µM]
2.94	1.93	CCCCNc1nc(N)nnc1OCc1ccccc1 [Compound 15]	1.85	
0.38	0.81	CCCCNc1nc(N)nnc1OCCCc1ccc(OC)cc1 [Compound 16]	0.14	
17.49		CCCCNc1nc(N)nnc1OC [Compound 17]	1.02	
	0.64	CCCCNc1nc(N)nnc1OCc1ccccc1OC [Compound 19]	0.43	
0.17		CCCCNc1nc(N)nnc1OCc1ccccn1 [Compound 23]	0.14	
